Values quoted from earlier work, collected in patent US20240315956A1, “METHOD OF PRODUCTION OF THE COMPOSITION OF CYCLOOXYGENASE-2 (COX-2) INHIBITORS” (US NANO FOOD & DRUG INC, priority 2021, published 2024).

| pKa | solubility in water | Structure (SMILES) |
| --- | --- | --- |
| 15 | – | Nc1nnc(-c2cccc(Cl)c2Cl)c(N)n1 [lamotrigine] |
| – | practically insoluble in water | Cc1ccc(-c2cc(C(F)(F)F)nn2-c2ccc(S(N)(=O)=O)cc2)cc1 [Celecoxib] |
| – | practically insoluble in water | CCCN1CC(c2ccc(S(C)(=O)=O)cc2)=C(c2ccc(C)cc2)C1=O [Imrecoxib] |
| 10.73 | – | CCC1(C)CC(=O)NC1=O (stereo not shown) [ethosuximide] |
